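Five concentrations, 48 hours, 96-well plates. Abbreviation: GI50, concentration required for 50% inhibition of growth. At the TGI there is no net growth.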
Tests used:
Assay in all cases: NCI anticancer screen, dose series, 48 h
UACC-62 melanoma = test system: UACC-62 melanoma
MDA-MB-231 breast = test system: MDA-MB-231 breast
ACHN renal = test system: ACHN renal
SF-268 CNS = test system: SF-268 CNS
M14 melanoma = test system: M14 melanoma
TK-10 renal = test system: TK-10 renal
T-47D breast = test system: T-47D breast
U251 CNS = test system: U251 CNS
SNB-19 CNS = test system: SNB-19 CNS
SK-MEL-5 melanoma = test system: SK-MEL-5 melanoma

CC(CN(C)C)S(=O)(=O)c1ccc(-c2cnc(N)c(C(=O)Nc3ccccc3)n2)cc1 (stereo not given)
GI50 (UACC-62 melanoma): 6.28 µM | TGI (UACC-62 melanoma): 21.6 µM | GI50 (MDA-MB-231 breast): 10.6 µM | TGI (MDA-MB-231 breast): 27.6 µM | GI50 (ACHN renal): 1.35 µM | TGI (ACHN renal): 16.9 µM | GI50 (SF-268 CNS): 6.8 µM | TGI (SF-268 CNS): 39.8 µM | GI50 (M14 melanoma): 4.06 µM | TGI (M14 melanoma): 21.9 µM | GI50 (TK-10 renal): 11.5 µM | TGI (TK-10 renal): > 57.2 µM | GI50 (T-47D breast): 13.1 µM | TGI (T-47D breast): 59.3 µM | GI50 (U251 CNS): 4.17 µM | TGI (U251 CNS): 30 µM | GI50 (SNB-19 CNS): 16.3 µM | TGI (SNB-19 CNS): 75.1 µM | GI50 (SK-MEL-5 melanoma): 2.93 µM | TGI (SK-MEL-5 melanoma): 11.5 µM

O=C1OCC(c2ccc(O)cc2)=C1c1cc(O)c(O)c(O)c1
GI50 (UACC-62 melanoma): > 100 µM | TGI (UACC-62 melanoma): > 100 µM | GI50 (MDA-MB-231 breast): > 100 µM | TGI (MDA-MB-231 breast): > 100 µM | GI50 (ACHN renal): > 100 µM | TGI (ACHN renal): > 100 µM | GI50 (SF-268 CNS): > 100 µM | TGI (SF-268 CNS): > 100 µM | GI50 (M14 melanoma): > 100 µM | TGI (M14 melanoma): > 100 µM | GI50 (TK-10 renal): > 100 µM | TGI (TK-10 renal): > 100 µM | GI50 (T-47D breast): > 100 µM | TGI (T-47D breast): > 100 µM | GI50 (U251 CNS): 31.4 µM | TGI (U251 CNS): > 100 µM | GI50 (SNB-19 CNS): > 100 µM | TGI (SNB-19 CNS): > 100 µM | GI50 (SK-MEL-5 melanoma): > 100 µM | TGI (SK-MEL-5 melanoma): > 100 µM

Cc1cn(CCC(N)C(=O)O)c(=O)[nH]c1=O (stereo not given)
TGI (UACC-62 melanoma): > 100 µM | TGI (MDA-MB-231 breast): > 100 µM | TGI (ACHN renal): > 100 µM | TGI (SF-268 CNS): > 100 µM | TGI (M14 melanoma): > 100 µM | TGI (TK-10 renal): > 100 µM | TGI (T-47D breast): > 100 µM | TGI (U251 CNS): > 100 µM | TGI (SNB-19 CNS): > 100 µM | TGI (SK-MEL-5 melanoma): > 100 µM

COc1cccc(-n2ncc3c(N/N=C/c4ccc(C)cc4)ncnc32)c1
GI50 (UACC-62 melanoma): > 25 µM | TGI (UACC-62 melanoma): > 25 µM | GI50 (MDA-MB-231 breast): > 25 µM | TGI (MDA-MB-231 breast): > 25 µM | GI50 (ACHN renal): > 25 µM | TGI (ACHN renal): > 25 µM | GI50 (SF-268 CNS): > 25 µM | TGI (SF-268 CNS): > 25 µM | GI50 (M14 melanoma): > 25 µM | TGI (M14 melanoma): > 25 µM | GI50 (TK-10 renal): > 25 µM | TGI (TK-10 renal): > 25 µM | GI50 (T-47D breast): > 25 µM | TGI (T-47D breast): > 25 µM | GI50 (U251 CNS): > 25 µM | TGI (U251 CNS): > 25 µM | GI50 (SNB-19 CNS): > 25 µM | TGI (SNB-19 CNS): > 25 µM | GI50 (SK-MEL-5 melanoma): > 25 µM | TGI (SK-MEL-5 melanoma): > 25 µM
